# Test results from US20130149701A1, “METHODS OF IDENTIFYING THERAPEUTIC AGENTS FOR TREATING PERSISTER AND BACTERIAL INFECTION” (priority 2010, published 2013).
# “Also recorded” adds a separate entry of the source. Where two headings read alike, the source gives them in different places.
# Tests used:
# [1] = system: M. tuberculosis strains (wild type and wild type/pOLYG, and wild type/pOLYG+rpsA); assay: microbe, parasite or virus in culture; type: cell-based; details: for susceptibility of the RpsA overexpressing Mtb strain to other drugs: compared with parent strain or vector control strain, pH6.8; for MIC: Mycobacterium tuberculosis, read-out: minimum inhibitory concentration (MIC)
# [2] = molecular target: DHM444 mutant RpsA binding to tmRNA (Mycobacterium tuberculosis, UniProt P9WH43, DEL438-438); design: species or system M. tuberculosis
# [3] = molecular target: mutant RpsAΔA438 from the PZA-resistant strain DHM444 (Mycobacterium tuberculosis, UniProt P9WH43, DEL438-438); type: binding, M. tuberculosis
# M. tuberculosis = type: cell-based
# [4] = system: Mtb clinical isolate DHM444 / H37Rv; assay: microbe, parasite or virus in culture; type: cell-based, M. tuberculosis; details: Mycobacterium tuberculosis
SMILES,susceptibility of the RpsA overexpressing Mtb strain to other drugs [1],effect on tmRNA binding to mutant RpsA [2],binding to mutant RpsA (ITC) [3],also measured
"NNC(=O)c1ccncc1 [INH, isoniazid]",remained the same,no effect; also recorded: not affected,–,–
"O=C(O)c1cnccn1 [POA, 2-pyrazinecarboxylic acid]",–,did not inhibit,not and failed to bind,–
"NC(=O)c1cnccn1 [PZA, Pyrazinamide]",–,no effect; also recorded: not affected,did not bind; also recorded: failed to bind,"MIC (M. tuberculosis): 10 µg/mL; PZA susceptibility (M. tuberculosis): more susceptible; effect on PZA susceptibility (M. tuberculosis): did not have significant effect; reduction in MIC (M. tuberculosis): 5 fold; MIC ([1]; pH 5.5, PZA, vector control and parental Mtb strain, pH 5.5): 100 µg/mL; MIC ([1]; pH 5.5): 500 µg/mL; increase in the minimum inhibitory concentration (MIC) ([1]; pH 5.5): 5 fold; MIC [4]: 200 to 300 µg/mL"
CCn1cc(C(=O)O)c(=O)c2cc(F)c(N3CCNCC3)cc21 [norfloxacin],remained the same,–,–,–
CO[C@H]1/C=C/O[C@@]2(C)Oc3c(C)c(O)c4c(O)c(c(/C=N/N5CCN(C)CC5)c(O)c4c3C2=O)NC(=O)/C(C)=C\C=C\[C@H](C)[C@H](O)[C@@H](C)[C@@H](O)[C@@H](C)[C@H](OC(C)=O)[C@@H]1C [rifampin],remained the same,–,–,–
[H]/N=C(/N)N[C@H]1[C@H](O)[C@@H](O)[C@H](O[C@@H]2O[C@@H](C)[C@](O)(C=O)[C@H]2O[C@@H]2O[C@@H](CO)[C@H](O)[C@@H](O)[C@@H]2NC)[C@@H](N/C(N)=N\[H])[C@@H]1O [streptomycin],remained the same,–,–,–
